Results: ChEMBL document CHEMBL1681702, “Biological activity and ligand binding mode to the progesterone receptor of A-homo analogues of progesterone” (Bioorg Med Chem, 2011)
Activity calls are given as the source filed them. The calls are words filed in the database; no cut-off is given here.

Assays:
[1] = biological target: T1, Progesterone receptor (Homo sapiens) (UniProt P06401); assay: Agonist activity at human progesterone receptor in human T47D cells assessed as induction of Bcl-xL gene expression at 10^-6 M after 6 hrs by quantitative PCR; type: functional, cell-based
T1 sequence (whole entry): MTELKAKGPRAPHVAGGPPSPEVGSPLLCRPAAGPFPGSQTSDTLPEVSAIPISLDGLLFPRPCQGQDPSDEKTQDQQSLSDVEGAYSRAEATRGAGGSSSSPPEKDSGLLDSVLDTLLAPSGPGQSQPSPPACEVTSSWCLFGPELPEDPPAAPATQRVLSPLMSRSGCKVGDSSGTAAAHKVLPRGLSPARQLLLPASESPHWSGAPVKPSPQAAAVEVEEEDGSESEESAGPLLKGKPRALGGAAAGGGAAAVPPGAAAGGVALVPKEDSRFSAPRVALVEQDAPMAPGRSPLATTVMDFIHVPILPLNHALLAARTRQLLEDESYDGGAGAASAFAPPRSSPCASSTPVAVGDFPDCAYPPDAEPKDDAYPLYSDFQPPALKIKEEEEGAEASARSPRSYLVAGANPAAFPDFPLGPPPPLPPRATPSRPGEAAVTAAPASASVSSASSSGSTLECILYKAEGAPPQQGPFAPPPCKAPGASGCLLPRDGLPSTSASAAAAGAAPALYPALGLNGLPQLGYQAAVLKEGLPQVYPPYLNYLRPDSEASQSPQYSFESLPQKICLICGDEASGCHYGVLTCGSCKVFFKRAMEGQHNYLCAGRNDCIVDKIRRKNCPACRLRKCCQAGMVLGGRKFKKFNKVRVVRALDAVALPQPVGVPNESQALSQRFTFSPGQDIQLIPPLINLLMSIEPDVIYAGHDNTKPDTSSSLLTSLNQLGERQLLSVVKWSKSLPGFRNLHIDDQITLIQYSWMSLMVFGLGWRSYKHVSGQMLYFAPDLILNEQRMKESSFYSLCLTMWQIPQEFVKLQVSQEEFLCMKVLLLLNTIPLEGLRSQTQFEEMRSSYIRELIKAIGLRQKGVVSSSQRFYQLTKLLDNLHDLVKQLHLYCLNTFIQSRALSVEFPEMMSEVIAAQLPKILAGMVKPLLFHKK

[2] = biological target: T2, Mineralocorticoid receptor (Homo sapiens) (UniProt P08235); assay: Transactivation activity at human MR expressed in human Cos1 cells co-transfected with luciferase reporter gene linked to MMTV promoter and pCMV-LacZ vector at 10^-5 M after 24 hrs; type: cell-based
T2 sequence (whole entry): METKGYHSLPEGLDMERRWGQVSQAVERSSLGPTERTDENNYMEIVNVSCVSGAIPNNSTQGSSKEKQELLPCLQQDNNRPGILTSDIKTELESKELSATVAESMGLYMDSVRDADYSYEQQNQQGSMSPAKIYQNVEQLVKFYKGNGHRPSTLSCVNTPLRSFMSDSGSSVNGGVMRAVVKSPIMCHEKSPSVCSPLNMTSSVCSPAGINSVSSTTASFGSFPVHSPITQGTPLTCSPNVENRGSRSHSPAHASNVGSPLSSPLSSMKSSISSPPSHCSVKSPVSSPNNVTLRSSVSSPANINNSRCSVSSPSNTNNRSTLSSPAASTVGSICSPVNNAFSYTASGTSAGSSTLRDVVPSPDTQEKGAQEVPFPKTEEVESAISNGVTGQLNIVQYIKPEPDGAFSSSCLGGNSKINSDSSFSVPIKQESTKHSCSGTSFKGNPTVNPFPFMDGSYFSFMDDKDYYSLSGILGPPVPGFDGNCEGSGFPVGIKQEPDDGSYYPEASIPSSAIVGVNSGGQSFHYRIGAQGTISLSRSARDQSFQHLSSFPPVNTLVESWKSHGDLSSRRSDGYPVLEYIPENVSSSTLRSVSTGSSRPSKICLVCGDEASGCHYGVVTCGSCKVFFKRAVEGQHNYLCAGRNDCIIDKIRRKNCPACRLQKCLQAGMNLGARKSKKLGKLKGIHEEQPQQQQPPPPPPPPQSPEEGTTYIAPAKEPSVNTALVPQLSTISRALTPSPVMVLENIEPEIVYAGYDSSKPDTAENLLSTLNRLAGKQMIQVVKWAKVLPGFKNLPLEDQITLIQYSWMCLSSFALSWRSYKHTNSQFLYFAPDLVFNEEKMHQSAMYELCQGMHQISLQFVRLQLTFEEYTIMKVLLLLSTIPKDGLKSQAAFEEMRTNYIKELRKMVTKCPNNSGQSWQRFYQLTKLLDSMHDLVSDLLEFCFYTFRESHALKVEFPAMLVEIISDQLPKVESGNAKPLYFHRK

[3] = biological target: T1, Progesterone receptor (Homo sapiens); assay: Transactivation activity at human progesterone receptor isoform B expressed in human Cos1 cells co-transfected with luciferase reporter gene linked to MMTV promoter at 10^-7 M after 24 hrs; type: cell-based
[4] = biological target: T2, Mineralocorticoid receptor (Homo sapiens); assay: Antagonist activity at human MR expressed in human Cos1 cells co-transfected with luciferase reporter gene linked to MMTV promoter and pCMV-LacZ vector assessed as effect on aldosterone-induced activity at 10^-5 M after 24 hrs; type: functional, cell-based
[5] = biological target: T1, Progesterone receptor (Homo sapiens); assay: Transactivation activity at human progesterone receptor isoform B expressed in human Cos1 cells co-transfected with luciferase reporter gene linked to MMTV promoter at 10^-6 M after 24 hrs; type: cell-based

| Compound | Activity [1] | Activity [2] | Activity [3] | Activity [4] | Activity [5] |
| --- | --- | --- | --- | --- | --- |
| CC(=O)[C@H]1CC[C@H]2[C@@H]3CC=C4CCC(=O)CC[C@]4(C)[C@H]3CC[C@]12C | Active | inactive | Active | inactive | Active |
| CC(=O)[C@H]1CC[C@H]2[C@@H]3CC=C4CC(=O)CCC[C@]4(C)[C@H]3CC[C@]12C | Active | inactive | Active | inactive | Active |
